This is an account of results in PMC8284004, “Electrospun wound dressings containing bioactive natural products: physico-chemical characterization and biological assessment” (Biomaterials Research, 2021).

The structures appear in SMILES notation. Read-outs that look alike come from different tables or passages of the source. Marks after values point to notes of the source that are not given here.

Data set [1] relates to S. epidermidis LMG 10474. In words: Kirby-Bauer disc diffusion. The class given is cell-based, Staphylococcus epidermidis. The conditions noted are these: for zone of inhibition at 30 µg/disc: Staphylococcus epidermidis; for Inhibition zone: 53 μM/disc (30 μg/disc for dimeric A/S, 15 μg/disc for shikonin and alkannin). Here is the method: (§1) The antibacterial activity of neat and A/S mixture-loaded fibrous scaffolds was evaluated against the Gram-positive strains, Staphylococcus epidermidis LMG 10474 and S. aureus LMG 8224, implementing the Kirby-Bauer disc diffusion method. The bacteria were cultured onto nutrient agar plates (24 h at 37 °C) and then a dense bacterial suspension was made by transferring a small portion of staphylococci (10 μL) with an inoculating loop to 1 mL of sterile PBS. Next, 100 μL of this suspension were spread to Mueller-Hinton (MH) agar plates for conducting the test. UV-sterilized nanofibers with an average diameter of 8 mm were placed on the surface of inoculated MH plates. The plates were incubated for a period of 24 h at 37 °C. […] After 24 h, the antibacterial activity was evaluated by measuring the inhibition zone of the bacteria in millimeters.

In data set [2] the test system is S. aureus. The arrangement: method as in PMID 760130, PMID 5066306. The conditions noted are these: cited from earlier work.
The conditions of data set [3]: n-octanol/water (1:1, v/v) ref Ordoudi et al. [24]; cited from earlier work.
The subject of data set [4] is S. aureus LMG 8224. In words: Kirby-Bauer disc diffusion. It counts as cell-based, Staphylococcus aureus. The conditions noted are these: for zone of inhibition at 30 µg/disc: Staphylococcus aureus; for Inhibition zone: 53 μM/disc (30 μg/disc for dimeric A/S, 15 μg/disc for shikonin and alkannin). Here is the method:
as §1

For data set [5], the system named is Hs27 fibroblasts. In words: SAR study of A/S derivatives on Hs27 metabolic activity (MTT). The conditions noted are these: for Effect on Hs27 cell viability: 24 h, MTT, vs untreated cells. How it is done:
(§2) In this regard, each compound was first dissolved in DMSO and further diluted with DMEM up to the desired concentrations (< 0.1% v/v DMSO to avoid toxicity). […] After the respective incubation times, the metabolic activity was evaluated by MTT assay as described in the previous section. Untreated cells served as controls.

Test in data set [6]: as above
The conditions noted are these: human. Here is the method: as §2

The subject of data set [7] is human skin fibroblasts. The arrangement: method as in PMID 25234005. The conditions noted are these: non-selective toxicity towards normal cell lines ref 42; cited from earlier work.
Data set [8] deals with granuloma tissue in Wistar rats. The arrangement: method as in PMID 9586574. The conditions noted are these: dose-dependent ref 41; cited from earlier work.
Data set [9] concerns keratinocytes. Also on record: method as in PMID 27725239. The conditions noted are these: at 1.5 and 3 μΜ ref 40; cited from earlier work.
The test system of data set [10] is human gingival fibroblasts. The arrangement: method as in PMID 31574951. The conditions noted are these: at 1 μΜ ref 39; cited from earlier work.
For data set [11], the system named is S. epidermidis. The arrangement: method as in PMID 760130, PMID 5066306. The conditions noted are these: cited from earlier work.
Where [12] appears, read: LMG10474, 30 μg/disc on 8 mm filter paper, 24 h, read-out: Zone of inhibition.
Where [13] appears, read: LMG8224, 30 μg/disc on 8 mm filter paper, 24 h, read-out: Zone of inhibition.

For the molecule `CC(=O)O[C@H](CC=C(C)C)C1=CC(=O)c2c(O)ccc(O)c2C1=O` [Acetyl-shikonin, acetyl-shikonin], the zone of inhibition at 30 µg/disc in data set [1] (LMG10474, 24 h) came to 14.1 ± 1.25 mm; in data set [4] (LMG8224, 24 h), 11.9 ± 1.43 mm. Moreover, the Growth inhibition result in data set [2] is listed as “inhibited the growth”. Moreover, in data set [3], the “Log P” value is recorded as 0.66 ^c.
The molecule `CC(C)=CC[C@H](O)C1=CC(=O)c2c(O)ccc(O)c2C1=O` [Alkannin, alkannin] came in with a Zone of inhibition in data set [1] (30 μg/disc on 8 mm filter paper, 24 h) of 15.16 ± 0.66 mm. For the same molecule, the values for the Inhibition zone in data set [1] and in data set [4] were 10.69 ± 1.01 mm and 10.74 ± 0.74 mm, respectively. Besides, the zone of inhibition at 30 µg/disc in data set [1] (LMG10474, 24 h) came to 15.2 mm; in [4] (LMG8224, 24 h), 12.7 ± 0.58 mm. The “Effect on Hs27 cell viability” value in data set [5] (1 μM) is given as “significant decrease in cell number”. In addition, in data set [6], the viability at 3 days, 0.5 µM is over 110%. Further, in data set [7], the IC50 was 1500 ± 100 nM. Also, the “Log P” value in [3] is −0.27 ^c. In data set [8], the “Proliferation of granuloma tissue” value is reported as “succeeded in accelerating (dose-dependently) the proliferation of granuloma tissue”.
In the case of `CC(C)=CCCC1=CC(=O)c2c(O)ccc(O)c2C1=O` [Deoxy-shikonin, deoxy-shikonin], the zone of inhibition at 30 µg/disc in [1] (LMG10474, 24 h) came out at 13.2 ± 0.22 mm; in [4] (LMG8224, 24 h), 12.4 ± 0.23 mm. Besides, in [3], the “Log P” value is 1.08^c. Further, the In vitro migration entry in data set [9] is listed as “enhanced the in vitro migration”.
With `CC(C)=CCC(OC(=O)CC(C)C)C1=CC(=O)c2c(O)ccc(O)c2C1=O` (stereo not shown) [Isovaleryl-shikonin, isovaleryl-shikonin], the zone of inhibition at 30 µg/disc worked out at 11.1 ± 0.94 mm in data set [1] (setting [12]) and 9.13 ± 0.51 mm in [4] (setting [13]). Also, the Proliferation rate ranking result in data set [5] (day 3, isovaleryl-shikonin at 500 nM and 1 μM, dimeric A/S at 1 μM) is recorded as “highest proliferation rates”.
Turning to `CC(C)=CC[C@@H](O)C1=CC(=O)c2c(O)ccc(O)c2C1=O` [Shikonin, shikonin], the figures for the Inhibition zone in data set [1] and in data set [4] were 10.77 ± 1.07 mm and 11.08 ± 0.26 mm, respectively. In addition, the zone of inhibition at 30 µg/disc in data set [1] (LMG10474, 24 h) turned out to be 14.8 ± 2.12 mm; in [4] (LMG8224, 24 h), 12.3 ± 0.64 mm. Also, the Growth inhibition entry in data set [2] was “inhibited the growth”. The “Effect on Hs27 cell viability” value in [5] (500 nM) and in data set [5] (1 μM) was “significant decrease in cell number” in each case. In addition, the IC50 in data set [7] was 1200 ± 100 nM. In addition, the In vitro migration result in data set [10] is “enhanced the in vitro migration”. Further, in data set [3], the “Log P” value was −0.27 ^c. Besides, the “Proliferation of granuloma tissue” value in [8] is recorded as “succeeded in accelerating (dose-dependently) the proliferation of granuloma tissue”.
Take `CC(C)=CCC(OC(=O)C=C(C)C)C1=CC(=O)c2c(O)ccc(O)c2C1=O` (stereo not drawn) [β,β-Dimethyl-acryl-shikonin, β,β-dimethyl-acryl-shikonin]: the zone of inhibition at 30 µg/disc turned out to be 10.6 ± 0.57 mm in data set [1] (setting [12]) and 8.98 ± 0.17 mm in data set [4] (setting [13]). Also, the Growth inhibition entry in [2] and in [11] was “effective” in each case. Besides, the “Log P” value in data set [3] was 1.38 ^c.
